For one molecule, IC50 results are on record in ChEMBL document CHEMBL1127927, “Cycloheptimidazole based angiotensin II receptor antagonists. 4,5,6,7-tetrahydro-8-carboxymethylidene cycloheptimidazoles” (Bioorg Med Chem Lett, 1994).

Molecules are shown by their SMILES.

The target of the assay is T1, Angiotensin II receptor (AT-1) type-1 (Rattus norvegicus, UniProt P29089+P25095).
T1 sequence (P29089 whole entry): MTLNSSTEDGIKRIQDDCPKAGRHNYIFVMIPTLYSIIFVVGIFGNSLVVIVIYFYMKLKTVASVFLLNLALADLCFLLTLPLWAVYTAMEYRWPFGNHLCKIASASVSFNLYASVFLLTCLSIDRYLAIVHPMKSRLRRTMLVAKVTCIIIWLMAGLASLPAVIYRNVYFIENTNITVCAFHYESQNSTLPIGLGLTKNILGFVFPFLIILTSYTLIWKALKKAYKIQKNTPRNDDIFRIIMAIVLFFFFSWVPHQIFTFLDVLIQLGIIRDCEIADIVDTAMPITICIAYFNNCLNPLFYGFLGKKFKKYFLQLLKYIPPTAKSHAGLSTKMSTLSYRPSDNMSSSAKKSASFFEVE
T1 sequence (P25095 whole entry): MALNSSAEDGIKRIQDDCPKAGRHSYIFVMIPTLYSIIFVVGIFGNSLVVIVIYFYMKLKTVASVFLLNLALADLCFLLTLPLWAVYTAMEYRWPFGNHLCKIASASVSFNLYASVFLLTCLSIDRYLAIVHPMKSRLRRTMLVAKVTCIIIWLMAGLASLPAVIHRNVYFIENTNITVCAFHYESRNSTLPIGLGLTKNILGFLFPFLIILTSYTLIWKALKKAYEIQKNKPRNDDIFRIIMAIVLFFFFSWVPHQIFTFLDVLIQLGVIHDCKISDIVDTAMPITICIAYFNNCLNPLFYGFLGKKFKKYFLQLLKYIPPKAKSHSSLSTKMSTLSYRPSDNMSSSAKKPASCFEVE
Put plainly: Inhibition of binding of [125I]- Sar,Ileu-angiotensin to Angiotensin II receptor, type 1 in the radioligand binding assay using rat liver membrane preparations.

A word on the IC50: it is the concentration that gives 50% inhibition. A high value points to lower potency. `CCc1nc2c(n1Cc1ccc(-c3ccccc3-c3nn[nH]n3)cc1)/C(=C/C(=O)O)CCCC2` had an IC50 of 5.45 nM.
